Experimental findings from patent publication US20200385371A1 (Propellon Therapeutics Inc., priority 2017, published 2020) are described below.

The target of experiment [1] is T1, WDR5 (Homo sapiens, UniProt P61964). Briefly: Surface Plasmon Resonance (SPR) assay. It is filed as binding. The arrangement: Full length WDR5 with an N-terminal His tag and C-terminal AviTag; His tag (N); made in house; host or cells: E. coli. Here is the method:
Exemplary compounds of the application were dissolved in 100% DMSO at 10 mM, assayed fresh, and then stored at −20° C. for repeat studies and other experiments. Full length WDR5 with an N-terminal His tag and C-terminal AviTag (Avidity Inc.) was expressed in E. coli with coexpression of BirA to biotin label the protein in vivo. Purification was via Ni-NTA.
SPR studies were performed using a Biacore™ T200 instrument (GE Health Sciences Inc.). Biotinylated WDR5 protein (approximately 3000RU) was stably captured to streptavidin coupled SA chips according to the manufacture's protocol (GE Health Sciences Inc.). The running buffer used was HBS-EP (20 mM Hepes pH 7.4, 150 mM NaCl, 3 mM EDTA, 0.05% P-20) plus 5% DMSO with a flow rate of 40 μl/min. For SPR analysis, 5 different concentrations of each exemplary compound of the application were sprayed into 96 or 384 well plates using an HP D300 digital dispenser. The concentration ranged from about 195 nM to about 12 nM in a two-fold series. […] Curve fitting and KD calculations were performed with the Biacore T200 Evalutation software (GE Health Sciences Inc).

The target of experiment [2] is T1, WDR5. Nature of the experiment: Fluorescence Polarization (FP) binding assay. Here is the method: H3 (1-15) ([…]), and 9-Ala-FAM ((Ac)-[…]-(Ahx-Ahx)-K(5,6-FAM)) (where Ahx represents 6 amino hexanoic acid linkers) peptides for WDR5 were synthesized, N-terminal-labeled with isothiocyanate-fluorescein, and purified by Tufts University Core Services (Boston, Mass.). Compound binding assays were performed at a constant labeled peptide concentration of 30 or 20 nM for H3 (1-15) and 9-Ala-FAM respectively. WDR5 concentrations of 0.3 μM for H3 (1-15) and 0.05 μM for 9-Ala-FAM were used. For both the H3 (1-15) and 9-Ala-FAM peptides, 80 mM sodium phosphate buffer (pH 6.5), 20 mM KCl, and 0.008% Triton X-100 was used. For the H3 (1-15) peptide, FP assays were measured in 10 μl aliquots in 384-well Axygen plates using a Synergy 4 microplate reader (BioTek) with an excitation wavelength of 485 nm and emission wavelength of 528 nm. For the 9-Ala-FAM peptide, FP assays were measured in 125 μl aliquots in 96 well Microfluor plates using a ViewLux instrument (Perkin Elmer) with an excitation wavelength of 480 nm and emission wavelength of 540 nm. To determine Kdsp values, the data were fit to a hyperbolic function using Sigma Plot software (Systat Software). The Kdisp values represent the average of quadruplicate measurements.

[3] abbreviates: Table 2, effect of difluoro substitution, read-out: KD (SPR).

Read-outs that look alike come from different tables or passages of the source.

Turning to `C[C@@H]1CN(c2cc(F)c(-c3ccc(OCC4CC4)nc3)c(F)c2NC(=O)c2c[nH]c(=O)cc2C(F)(F)F)C[C@H](C)N1C` [Example 1, N-(3-(6-(cycloproylmethoxy)pyridin-3-yl)-2,4-difluoro-6-((3S,5R)-3,4,5-trimethylpiperazin-1-yl)phenyl)-6-oxo-4-(trifluoromethyl)-1,6-dihydropyridine-3-carboxamide], the Kd at WDR5 [1] (read-out: SPR Kd) stood at 0.59 nM.

On to `C[C@@H]1CN(c2cc(F)c(-c3ccnc(OCC4CC4)c3)c(F)c2NC(=O)c2c[nH]c(=O)cc2C(F)(F)F)C[C@H](C)N1C` [Example 3, N-(3-(2-(cyclopropylmethoxy)pyridin-4-yl)-2,4-difluoro-6-((3S,5R)-3,4,5-trimethylpiperazin-1-yl)phenyl)-6-oxo-4-(trifluoromethyl)-1,6-dihydropyridine-3-carboxamide], for which the half-inhibitory concentration (IC50) on WDR5 [2] worked out at 26.6 nM. For the same molecule, the equilibrium dissociation constant (Kd) on WDR5 [1] (read-out: SPR Kd) is 3.39 nM.

On to `C[C@@H]1CN(c2cc(F)c(-c3ccc(N4CCOCC4)nc3)c(F)c2NC(=O)c2c[nH]c(=O)cc2C(F)(F)F)C[C@H](C)N1C` [Example 4, N-(2,4-difluoro-3-(6-morpholinopyridin-3-yl)-6-((3S,5R)-3,4,5-trimethylpiperazin-1-yl)phenyl)-6-oxo-4-(trifluoromethyl)-1,6-dihydropyridine-3-carboxamide], for which the concentration for half-maximal inhibition (IC50) at WDR5 [2] stood at 31.8 nM. Further, on WDR5 [1] (read-out: SPR Kd), the Kd was found to be 2.02 nM.

Regarding `C[C@@H]1CN(c2cc(F)c(-c3ccc(N4CCOCC4)cc3)c(F)c2NC(=O)c2c[nH]c(=O)cc2C(F)(F)F)C[C@H](C)N1C` [Example 5, N-(2,6-difluoro-4′-morpholino-4-((3S,5R)-3,4,5-trimethylpiperazin-1-yl)-[1,1′-biphenyl]-3-yl)-6-oxo-4-(trifluoromethyl)-1,6-dihydropyridine-3-carboxamide], the IC50 at WDR5 [2] was 32.2 nM. The Kd at WDR5 [1] (read-out: SPR Kd) turned out to be 3.55 nM.

On to `COCCOc1ccc(-c2c(F)cc(N3C[C@@H](C)N(C)[C@@H](C)C3)c(NC(=O)c3c[nH]c(=O)cc3C(F)(F)F)c2F)cn1` [Example 6, N-(2,4-difluoro-3-(6-(2-methoxyethoxy)pyridin-3-yl)-6-((3S,5R)-3,4,5-trimethylpiperazin-1-yl)phenyl)-6-oxo-4-(trifluoromethyl)-1,6-dihydropyridine-3-carboxamide], for which the IC50 at WDR5 [2] came out at 32.9 nM. In addition, the dissociation constant Kd on WDR5 [1] (read-out: SPR Kd) was 2.83 nM.

Take `C[C@@H]1CN(c2cc(F)c(-c3ccc(OCC4CC4)cc3)c(F)c2NC(=O)c2c[nH]c(=O)cc2C(F)(F)F)C[C@H](C)N1C` [Example 7, N-(4′-(cyclopropylmethoxy)-2,6-difluoro-4-((3S,5R)-3,4,5-trimethylpiperazin-1-yl)-[1,1′-biphenyl]-3-yl)-6-oxo-4-(trifluoromethyl)-1,6-dihydropyridine-3-carboxamide]: at WDR5 [2], the IC50 amounted to 17.9 nM.

For the molecule `C[C@@H]1CN(c2cc(F)c(-c3cnc(N4CCO[C@@H](C)C4)nc3)c(F)c2NC(=O)c2cn(C)c(=O)cc2C(F)(F)F)C[C@H](C)N1C` [Example 12, N-(2,4-difluoro-3-(2-((S)-2-methylmorpholino)pyrimidin-5-yl)-6-((3S,5R)-3,4,5-trimethylpiperazin-1-yl)phenyl)-1-methyl-6-oxo-4-(trifluoromethyl)-1,6-dihydropyridine-3-carboxamide formic Acid], the IC50 at WDR5 [2] is 24.6 nM. Moreover, the Kd on WDR5 [1] (read-out: SPR Kd) is 1.42 nM.

As for `C[C@@H]1CN(c2cc(F)c(C3=CCCN(C(=O)OC4(C)CCC4)C3)c(F)c2NC(=O)c2c[nH]c(=O)cc2C(F)(F)F)C[C@H](C)N1C` [Example 14, 1-Methylcyclobutyl 5-(2,6-difluoro-3-(6-oxo-4-(trifluoromethyl)-1,6-dihydropyridine-3-carboxamido)-4-((3S,5R)-3,4,5-trimethylpiperazin-1-yl)phenyl)-3,6-dihydropyridine-1(2H)-carboxylate], the half-inhibitory concentration (IC50) at WDR5 [2] was 10.2 nM. Moreover, the Kd at WDR5 [1] (read-out: SPR Kd) came out at 1.88 nM.

As to `C[C@@H]1CN(c2cc(F)c(C3=CCCN(c4ncccn4)C3)c(F)c2NC(=O)c2c[nH]c(=O)cc2C(F)(F)F)C[C@H](C)N1C` [Example 15, N-(2,4-difluoro-3-(1-(pyrimidin-2-yl)-1,2,5,6-tetrahydropyridin-3-yl)-6-((3S,5R)-3,4,5-trimethylpiperazin-1-yl)phenyl)-6-oxo-4-(trifluoromethyl)-1,6-dihydropyridine-3-carboxamide], the half-inhibitory concentration (IC50) at WDR5 [2] came out at 21.1 nM. Besides, the Kd on WDR5 [1] (read-out: SPR Kd) stood at 1.69 nM.

In the case of `C[C@@H]1CN(c2cc(F)c(-c3cnc(N4CCO[C@@H](C)C4)nc3)c(F)c2NC(=O)c2ccc(F)cc2C(F)(F)F)C[C@H](C)N1C` [Example 16, N-(2,4-difluoro-3-(2-((S)-2-methylmorpholino)pyrimidin-5-yl)-6-((3S,5R)-3,4,5-trimethylpiperazin-1-yl)phenyl)-4-fluoro-2-(trifluoromethyl)benzamide formic acid], the half-inhibitory concentration (IC50) on WDR5 [2] turned out to be 6.99 nM. In addition, the dissociation constant (Kd) on WDR5 [1] (read-out: SPR Kd) was 1.22 nM.

Take `C[C@@H]1CN(c2ncc(-c3c(F)cc(N4C[C@@H](C)N(C)[C@@H](C)C4)c(NC(=O)c4cn(C)c(=O)cc4C(F)(F)F)c3F)cn2)CCO1` [Example 17, N-(2,4-difluoro-3-(2-((R)-2-methylmorpholino)pyrimidin-5-yl)-6-((3S,5R)-3,4,5-trimethylpiperazin-1-yl)phenyl)-1-methyl-6-oxo-4-(trifluoromethyl)-1,6-dihydropyridine-3-carboxamide formic acid]: the 50% inhibitory concentration (IC50) at WDR5 [2] was found to be 10.1 nM. For the same molecule, at WDR5 [1] (read-out: SPR Kd), the dissociation constant (Kd) came to 1.75 nM.

For the molecule `C[C@@H]1CN(c2ncc(-c3c(F)cc(N4C[C@@H](C)N(C)[C@@H](C)C4)c(NC(=O)c4ccc(F)cc4C(F)(F)F)c3F)cn2)CCO1` [Example 18, N-(2,4-difluoro-3-(2-((R)-2-methylmorpholino)pyrimidin-5-yl)-6-((3S,5R)-3,4,5-trimethylpiperazin-1-yl)phenyl)-4-fluoro-2-(trifluoromethyl)benzamide formic acid], the IC50 on WDR5 [2] came to 11 nM. Also, at WDR5 [1] (read-out: SPR Kd), the dissociation constant (Kd) was 1.71 nM.

Turning to `C[C@@H]1CN(c2cc(F)c(C3=CCCN(C(=O)C(C)(C)C)C3)c(F)c2NC(=O)c2c[nH]c(=O)cc2C(F)(F)F)C[C@H](C)N1C` [Example 19, N-(2,4-difluoro-3-(1-pivaloyl-1,2,5,6-tetrahydropyridin-3-yl)-6-((3S,5R)-3,4,5-trimethylpiperazin-1-yl)phenyl)-6-oxo-4-(trifluoromethyl)-1,6-dihydropyridine-3-carboxamide], on WDR5 [2], the IC50 is 31.6 nM. Further, at WDR5 [1] (read-out: SPR Kd), the dissociation constant (Kd) worked out at 5.31 nM.

With `C[C@@H]1CN(c2cc(F)c(C3=CCCN(c4ncccn4)C3)c(F)c2NC(=O)c2c[nH]c(=O)cc2C(F)F)C[C@H](C)N1C` [Example 21, N-(2,4-difluoro-3-(1-(pyrimidin-2-yl)-1,2,5,6-tetrahydropyridin-3-yl)-6-((3S,5R)-3,4,5-trimethylpiperazin-1-yl)phenyl)-4-(difluoromethyl)-6-oxo-1,6-dihydropyridine-3-carboxamide], the IC50 on WDR5 [2] was 37.1 nM. In addition, the Kd at WDR5 [1] (read-out: SPR Kd) came to 4.5 nM.

For the molecule `C[C@@H]1CN(c2cc(F)c(C3=CCCN(C(=O)OC4(C)CCC4)C3)c(F)c2NC(=O)c2c[nH]c(=O)cc2C(F)F)C[C@H](C)N1C` [Example 22, 1-Methylcyclobutyl 5-(3-(4-(difluoromethyl)-6-oxo-1,6-dihydropyridine-3-carboxamido)-2,6-difluoro-4-((3S,5R)-3,4,5-trimethylpiperazin-1-yl)phenyl)-3,6-dihydropyridine-1(2H)-carboxylate], at WDR5 [2], the 50% inhibitory concentration (IC50) was 23 nM. At WDR5 [1] (read-out: SPR Kd), the dissociation constant Kd came out at 1.74 nM.

For `C[C@@H]1CN(c2ncc(-c3ccc(N4C[C@@H](C)N(C)[C@@H](C)C4)c(NC(=O)c4c[nH]c(=O)cc4C(F)(F)F)c3)cn2)C[C@H](C)O1` [reference compound], the dissociation constant (Kd) on WDR5 [1] (setting [3]) turned out to be 2.9 nM.

`C[C@@H]1CN(c2ncc(-c3cc(F)c(N4C[C@@H](C)N(C)[C@@H](C)C4)c(NC(=O)c4c[nH]c(=O)cc4C(F)(F)F)c3)cn2)C[C@H](C)O1` [reference compound]: on WDR5 [1] (setting [3]), the Kd stood at 48 nM.

Regarding `C[C@@H]1CN(c2ncc(-c3ccc(N4C[C@@H](C)N(C)[C@@H](C)C4)c(NC(=O)c4c[nH]c(=O)cc4C(F)(F)F)c3F)cn2)C[C@H](C)O1` [reference compound], the Kd at WDR5 [1] (setting [3]) was 1.8 nM.
